Data published in patent US10209236B2, “Cell analyzer system, cell analyzer program, and cell analyzing method” (Sony Corporation, priority 2012, dated 2019).

How the values were obtained:
Assay type in all cases: cell-based
[1] = tested on: neuron cells (iPS Academia Japan) that were differentiation of iPS cells; assay: Fluorescence intensity vibration (Ca2+ imaging with Fluo8) of neuron cells, FFT power spectra; settings: for spontaneous membrane potential vibration of the neural cells: confirmed by the vibration characteristics of the fluorescence intensity vibration
Experimental: Effects of GABA and L-Glu on the neuron cells and the neuron cell network were evaluated using the fluorescence intensity vibration. The GABA is a physiological active substance that gives inhibitory stimulation to the neuron cells. The L-Glu gives exciting stimulation.
Fluo8 (fluorescent labeling) used in Ca^2+ imaging was entrained in the neuron cells (iPS Academia Japan) that were differentiation of iPS cells. The GABA or the L-Glu was administered to incubation liquid. Fluorescence of the Fluo8 generated from each neuron cell was image-captured at 2 flame/sec for 1 minute to provide each cell image.
The fluorescence intensity vibration (vibration information) was extracted from each cell image, taking the image range including one neuron cell as the extraction range. FIG. 9(a) is a graph of fluorescence intensity vibration extracted from the cell image of the neuron cells to which the GABA is administered. FIG. 9(b) is a graph of fluorescence intensity vibration extracted from the cell image of the neuron cells to which the L-Glu is administered.
Then, the FFT analysis was applied to fluorescence intensity vibration to calculate power spectra (vibration characteristics). FIG. 10(a) is a graph of power spectrum calculated from the fluorescence intensity vibration ([…]) of the neuron cells to which the GABA is administered. FIG. 10(b) is a graph of power spectrum calculated from the fluorescence intensity vibration ([…]) of the neuron cells to which the L-Glu is administered.

[2] = tested on: neuron cells (iPS Academia Japan) that were differentiation of iPS cells; assay: Motion vibration of neuron cells, FFT power spectra; settings: for spontaneous membrane potential vibration of the neural cells: confirmed by the vibration characteristics of the motion vibration
Experimental: Effects of GABA and L-Glu administered on the neuron cells were evaluated. The GABA or the L-Glu was administered to incubation liquid of the neuron cells (iPS Academia Japan) that were differentiation of iPS cells. Each neuron cell was image-captured at 2 flame/sec for 1 minute to provide each cell image.
In each cell image, the motion vibration was extracted using the image range including one neuron cell as the extraction range. FIG. 23(a) is a graph of the motion vibration extracted from the cell image of the neural cells to which the GABA is administrated. FIG. 23(b) is a graph of the motion vibration extracted from the cell image of the neural cells to which the L-Glu is administrated.
Then, the FFT analysis was applied to the motion vibration to calculate power spectra. FIG. 24(a) is a graph of power spectrum calculated from the motion vibration (FIG. 23(a)) of the neuron cells to which the GABA is administered. FIG. 24(b) is a graph of power spectrum calculated from the motion vibration (FIG. 23(b)) of the neuron cells to which the L-Glu is administered.

[3] = tested on: neural cells derived from iPS cells where a sufficient neural cell network was formed; assay: Evaluation of cytotoxicity by motion vibration; settings: whole image as extraction range; 5 μm of memantine with 500 nM or 5000 nM of Aβ peptide; incubated for five days; FIG. 28
Experimental: Effects of a cytotoxic substance administered on the neuron cells were evaluated using the motion vibration of the cells. As a cytotoxic model, the cytotoxicity of Aβ peptide considered as a cause of the Alzheimer disease and a neuroprotective action of an anti-alzheimer's disease drug, i.e., memantine were evaluated. As the cytotoxicity of Aβ peptide, there are a synapse failure by acting on synapses and a cell failure entrained in the cells. The cell group of the neural cells derived from iPS cells where a sufficient neural cell network was formed was prepared. A predetermined amount of Aβ peptide or Aβ peptide and memantine was administered to each cell group to incubate for five days. After five days, the cell image of each cell group was captured to extract the motion vibration from the whole image and each cell as the extraction range and the vibration characteristics were calculated. FIGS. 27(a) to (f) are graphs of the vibration characteristics of the motion vibration extracted from the extraction range including the whole image. […] FIG. 28 is a graph of average values of the vibration power extracted from the motion vibration in each cell group shown in FIGS. 27(a) to (e) in each pixel included in the extraction range. […] On the other hand, when memantine was administered, the vibration power is not decreased. […]

[4] = extraction range including one neuron cell, compared with neuron cells to which the L-Glu is administered, FIGS. 10(a) and 10(b)
[5] = extraction range including one neuron cell, compared with neuron cells to which the L-Glu is administered, FIGS. 24(a) and 24(b)

SMILES | spontaneous membrane potential vibration of the neural cells [1] | spontaneous membrane potential vibration of the neural cells [2] | amplitude of the fluorescence intensity vibration [1, 4] | frequency of the fluorescence intensity vibration [1, 4] | amplitude of the motion vibration [2, 5] | frequency of the motion vibration [2, 5] | vibration power of the cell group (motion vibration, average values in each pixel) [3]
N[C@@H](CCC(=O)O)C(=O)O [L-Glu] | changed | changed | – | – | – | – | –
NCCCC(=O)O [GABA] | changed | changed | greater | lower | greater | lower | –
CC12CC3CC(C)(C1)CC(N)(C3)C2 [memantine] | – | – | – | – | – | – | not decreased
